Test results as given in patent US20240156756A1 (Steel Therapeutics, Inc., priority 2021, published 2024).
Where a name gives a salt, the structure may show the parent alone. Read-outs that look alike come from different tables or passages of the source.

Key:
[1] = for stability of control sample (active only, no excipient): HPLC impurities
[2] = system: chronic anal fissures; details: cream containing 0.5% nifedipine for four weeks; cited from earlier work

Structure (SMILES)	stability of control sample (active only, no excipient) ([1]; T0, both temperatures (RT & 40° C.))	degradation in any excipient combinations ([1]; T0, both temperatures (RT & 40° C.), major = >5%)	degradation in DEC combinations ([1]; T4 weeks, Benzyl Alcohol and Oleyl alcohol combinations)	major degradation in DEC combinations ([1]; T4 weeks, RT & 40° C., combinations of Transcutol, DMI, and PEG 400)	stability of control sample (active only, no excipient) ([1]; T4 weeks, both temperatures (RT & 40° C.))	patients experienced healing [2]
CCN(CC)CC(=O)Nc1c(C)cccc1C [Lidocaine HCl, 2-(diethylamino)-N-(2,6-dimethylphenyl)acetamide;hydrochloride]	stable	No major degradation	Slight degradation	> 5%	stable	
COC(=O)C1=C(C)NC(C)=C(C(=O)OC)C1c1ccccc1[N+](=O)[O-] [Nifedipine, dimethyl 2,6-dimethyl-4-(2-nitrophenyl)-1,4-dihydropyridine-3,5-dicarboxylate]						70%
